Experimental findings from PubChem BioAssay (NCI) are described below.

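Following 48 hours of exposure in 96-well plates, responses at five concentrations were used to interpolate endpoints linearly. TGI: concentration producing complete growth inhibition.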 Where a SMILES comes first, the peptide text is derived from it. The star is where a group is joined. Boc = CC(C)(C)OC(=O)*; OBn = c1ccc(CO*)cc1

Assay in all cases: NCI tumour cell line growth inhibition, 48 h
Assay [1] has as its system UO-31 renal.
The test system of assay [2] is MOLT-4 leukemia.
Assay [3] deals with SF-295 CNS.
Assay [4] deals with SK-OV-3 ovarian.
Assay [5] concerns SK-MEL-28 melanoma.
Assay [6] has as its system NCI-H460 lung.
Assay [7] deals with NCI/ADR-RES ovarian.
In assay [8] the test system is MDA-MB-435.
For assay [9], the system named is UACC-257 melanoma.
The subject of assay [10] is RXF 393 renal.
Assay [11] has as its system MALME-3M melanoma.
Assay [12] has as its system COLO 205 colon.
Assay [13] has as its system A549 NSCLC.
Assay [14] relates to OVCAR-8 ovarian.
The subject of assay [15] is OVCAR-4 ovarian.

In the case of `CC1=C2c3ccccc3N(S(=O)(=O)c3ccccc3)[C@H]2[C@H](C(=O)N2C3CC4CC[C@@]3(CS2(=O)=O)C4(C)C)CC1` (stereo not given in full), the TGI in assay [1] was 54 µM; in assay [2], 75.9 µM; in [3] it was more than 100 µM; in assay [4], more than 100 µM; in [5], more than 100 µM; in assay [6], more than 100 µM. Moreover, the TGI in assay [7] was more than 100 µM; in assay [8], more than 100 µM; in assay [9], more than 100 µM; in assay [10], 14.7 µM; in [11], more than 100 µM; in assay [12] it was more than 100 µM. Also, the TGI in [13], in [14] and in assay [15] was more than 100 µM each time.
As for `O=C(Nn1c(-c2ccccc2)nc2ccccc2c1=O)c1ccc(O)cc1`, the TGI in assay [1], in [2], in assay [3], in assay [4], in assay [5] and in [6] was more than 100 µM throughout. Moreover, the TGI in assay [7], in [8], in assay [9], in assay [10], in [11] and in assay [12] was more than 100 µM each time. Besides, the TGI in [13], in assay [14] and in assay [15] was more than 100 µM in each case.
For `CC(C)C(NC(=O)CNC(=O)C1CCCN1C(=O)C(NC(=O)OC(C)(C)C)C(C)C)C(=O)NCC(=O)OCc1ccccc1` (stereo not given) (Boc-VPGVG-OBn; configuration not given here), the TGI in assay [1], in assay [2], in assay [3], in assay [4], in [5] and in assay [6] was more than 100 µM in each case. Also, the TGI in [7], in [8], in assay [9], in [10], in assay [11] and in [12] was more than 100 µM throughout. In addition, the TGI in assay [13], in [14] and in [15] was more than 100 µM in each case.
Consider `CC(=O)[C@]1(C)[C@H](C)O[C@](C)(CO)[C@H]1O[Si](C)(C)c1ccccc1`, for which the TGI in assay [1] is 46.6 µM; in assay [2], more than 100 µM; in assay [3], more than 100 µM; in assay [4], more than 100 µM; in [5], more than 100 µM; in [6] it was more than 100 µM. Further, the TGI in [7] was more than 100 µM; in assay [8], more than 100 µM; in assay [9] it was more than 100 µM; in assay [10], 46 µM; in [11] it was more than 100 µM; in [12] it was more than 100 µM. Further, the TGI in assay [13], in [14] and in assay [15] was more than 100 µM throughout.
Take `COc1ccc2[nH]cc(CN3CCC(CO)(c4ccccc4)CC3)c2c1`: the TGI is 72.2 µM in assay [1]; 56.9 µM in [2]; 39.8 µM in assay [3]; more than 100 µM in [4]; 33.3 µM in assay [5]; more than 100 µM in assay [6]. Further, the TGI in assay [7] was more than 100 µM; in assay [8], 47.6 µM; in assay [9] it was 37.2 µM; in [10], more than 100 µM; in assay [11], 62.3 µM; in [12], 40.3 µM. The TGI in assay [13] is 57.3 µM; in assay [14], more than 100 µM; in assay [15], more than 100 µM.
As for `CN(C)c1ccc(/C=C2\N=C(c3ccccc3)N(/N=C3\C(=O)Nc4ccccc43)C2=O)cc1`, the TGI in assay [1], in [2], in assay [3], in assay [4], in assay [5] and in assay [6] was more than 100 µM throughout. Also, the TGI in assay [7] is more than 100 µM; in assay [8] it was 45.4 µM; in [9], more than 100 µM; in assay [10], more than 100 µM; in [11] it was more than 100 µM; in assay [12] it was 81 µM. Besides, the TGI in assay [13], in [14] and in assay [15] was more than 100 µM in each case.
For the compound `CC(C)N(C(=O)c1ccc(NCc2cc(O)ccc2O)cc1)C(C)C`, the TGI in assay [1] was 21.3 µM; in [2], more than 100 µM; in assay [3], 46 µM; in assay [4], more than 100 µM; in assay [5] it was 45.9 µM; in assay [6], 34.6 µM. In addition, the TGI in [7] is 42.9 µM; in assay [8], 40.9 µM; in assay [9] it was 31.4 µM; in [10], 28.3 µM; in assay [11], 28.9 µM; in assay [12], more than 100 µM. Further, the TGI was more than 100 µM in assay [13], 35.4 µM in assay [14] and 28.3 µM in assay [15].
For `CCCCC1=CC1(C#N)[N+](=O)[O-]` (stereo not given), the TGI in assay [1] is more than 100 µM; in assay [2] it was 67.5 µM; in assay [3] it was more than 100 µM; in [4], more than 100 µM; in [5], more than 100 µM; in assay [6], more than 100 µM. Moreover, the TGI in assay [7], in assay [8], in assay [9], in [10], in assay [11] and in [12] was more than 100 µM each time. Moreover, the TGI in assay [13], in assay [14] and in assay [15] was more than 100 µM each time.
On to `O=C(Nc1ccc(N2C(=O)CSC2c2cccs2)cc1)c1ccc(N2C(=O)CSC2c2cccs2)cc1` (stereo not given), for which the TGI in assay [1], in assay [2], in assay [3], in [4], in assay [5] and in [6] was more than 100 µM in each case. Besides, the TGI in assay [7], in assay [8], in assay [9], in [10], in assay [11] and in assay [12] was more than 100 µM each time. Also, the TGI in [13], in [14] and in assay [15] was more than 100 µM in each case.
